{"source": "patent US11773137B2", "about": "“Arid5a peptide inhibitors” (KING FAISAL UNIVERSITY, priority 2019, dated 2023)", "test_system": "polarized Th17 cells", "assay": "IL-17 production by naïve CD4+ T cells cultured under Th17-polarizing conditions", "format": "cell-based", "conditions": "PIA at 15, 30 and 45 μM", "experimental": "Naïve CD4^+ T cells were isolated from the spleen using MACS® CD4^+CD62L^+ isolation kit (Miltenyi Biotec). The isolated CD4^+CD62L^+ T cells were cultured in the presence of anti-CD3/CD28 dynabeads (Invitrogen), IL-6 (30 ng/mL; R&D Systems), transforming growth factor TGF-β1 (4 ng/mL; R&D Systems), anti-interferon IFN-γ and anti-IL-4 (10 μg/mL; Biolegend) for 72 h.\nThe intensities of Arid5a immunoblot bands and IL-17 concentrations are presented as mean±SD from at least three independent experiments produced similar results. The statistical significance between mean values was tested by one-way ANOVA. *p<0.05 was considered significant.\nArid5a plays an important role in the production of IL-17, a cytokine that plays pivotal roles in chronic inflammation and autoimmune diseases such as MS and rheumatoid arthritis, and cancer. Therefore, the effects of PIA (SEQ ID NO: 2) on IL-17 production by naïve CD4^+ cells cultured under Th17-polarizing conditions were examined. The CD4^+CD62L^+ T cells were cultured in the presence of anti-CD3/CD28 dynabeads, IL-6, TGF-β1, anti-IFN-γ and anti-IL-4.", "note": "Where no end group is shown, it is not given here."}
{"sequence": "ACTVGGYE [PIA, ACTVGGYE]", "values": [{"measurement": "cell viability", "value": "no significant effects on cell viability"}]}
